Results reported in PubChem BioAssay (NCI).
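Cultured in 96-well plates, cells were exposed to test compound for 48 hours across five concentrations. TGI is the concentration that stops growth completely.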

What was measured:
Assay in all cases: NCI tumour cell line growth inhibition, 48 h
[1] = tested on: K-562 leukemia
[2] = tested on: SN12C renal
[3] = tested on: NCI-H522 lung
[4] = tested on: SK-OV-3 ovarian
[5] = tested on: HOP-92 NSCLC
[6] = tested on: SNB-19 CNS
[7] = tested on: KM20L2 colon
[8] = tested on: A549 NSCLC
[9] = tested on: A498 renal
[10] = tested on: MCF7 breast
[11] = tested on: OVCAR-5 ovarian
[12] = tested on: EKVX NSCLC
[13] = tested on: SW-620 colon
[14] = tested on: NCI-H23 lung
[15] = tested on: DMS 273 small cell lung
[16] = tested on: HCC-2998 colon
[17] = tested on: P388 leukemia
[18] = tested on: MALME-3M melanoma
[19] = tested on: HCT-116 colon
[20] = tested on: SK-MEL-28 melanoma
[21] = tested on: MOLT-4 leukemia
[22] = tested on: SN12K1 renal
[23] = tested on: HT29 colon
[24] = tested on: SK-MEL-2 melanoma
[25] = tested on: SF-539 CNS
[26] = tested on: CAKI-1 renal
[27] = tested on: NCI/ADR-RES ovarian
[28] = tested on: P388/ADR leukemia
[29] = tested on: NCI-H226 lung
[30] = tested on: RPMI-8226 leukemia
[31] = tested on: NCI-H460 lung
[32] = tested on: SF-295 CNS
[33] = tested on: KM12 colon
[34] = tested on: DLD-1 colon
[35] = tested on: HOP-18 NSCLC
[36] = tested on: SF-268 CNS
[37] = tested on: SNB-78 CNS
[38] = tested on: COLO 205 colon
[39] = tested on: IGROV1 ovarian
[40] = tested on: OVCAR-4 ovarian
[41] = tested on: UACC-257 melanoma
[42] = tested on: OVCAR-3 ovarian
[43] = tested on: SNB-75 CNS
[44] = tested on: OVCAR-8 ovarian
[45] = tested on: RXF 393 renal
[46] = tested on: CCRF-CEM leukemia
[47] = tested on: LOX IMVI melanoma
[48] = tested on: HCT-15 colon
[49] = tested on: U251 CNS
[50] = tested on: SK-MEL-5 melanoma
[51] = tested on: M19-MEL melanoma
[52] = tested on: UO-31 renal
[53] = tested on: UACC-62 melanoma
[54] = tested on: DMS 114 small cell lung
[55] = tested on: HL-60(TB) leukemia
[56] = tested on: XF 498 CNS
[57] = tested on: HOP-62 NSCLC

Question: How did the TGI [1] turn out when `CC1(C)N=C(N)N=C(N)N1c1ccc(OCCCOc2ccccc2)c(Cl)c1` was run?
Answer: > 42.8 µM

Question: What about the TGI [2] of the same molecule?
Answer: 14.9 µM

Question: And the TGI [3]?
Answer: 8.39 µM

Question: And the TGI [4]?
Answer: 35.1 µM

Question: What about the TGI [5] of the same molecule?
Answer: 3.83 µM

Question: And the TGI [6]?
Answer: 1.06 µM

Question: What about the TGI [7] of the same molecule?
Answer: 11.3 µM

Question: What about the TGI [8] of the same molecule?
Answer: > 100 µM

Question: What about the TGI [9] of the same molecule?
Answer: 30.2 µM

Question: And the TGI [10]?
Answer: 14.8 µM

Question: And the TGI [11]?
Answer: 10.4 µM

Question: And the TGI [12]?
Answer: 14.4 µM

Question: What about the TGI [13] of the same molecule?
Answer: 13.7 µM

Question: What about the TGI [14] of the same molecule?
Answer: 10.7 µM

Question: And the TGI [15]?
Answer: 1.15 µM

Question: And the TGI [16]?
Answer: 13.1 µM

Question: What about the TGI [17] of the same molecule?
Answer: 10.3 µM

Question: What about the TGI [18] of the same molecule?
Answer: 14.5 µM

Question: What about the TGI [19] of the same molecule?
Answer: 13.5 µM

Question: And the TGI [20]?
Answer: 9.16 µM

Question: And the TGI [21]?
Answer: 16.8 µM

Question: What about the TGI [22] of the same molecule?
Answer: 11.2 µM

Question: And the TGI [23]?
Answer: 10.5 µM

Question: What about the TGI [24] of the same molecule?
Answer: 16.9 µM

Question: What about the TGI [25] of the same molecule?
Answer: 15.5 µM

Question: What about the TGI [26] of the same molecule?
Answer: 44.3 µM

Question: And the TGI [27]?
Answer: > 100 µM

Question: What about the TGI [28] of the same molecule?
Answer: > 100 µM

Question: And the TGI [29]?
Answer: 15.4 µM

Question: And the TGI [30]?
Answer: 28.9 µM

Question: What about the TGI [31] of the same molecule?
Answer: 12.4 µM

Question: And the TGI [32]?
Answer: > 43.7 µM

Question: What about the TGI [33] of the same molecule?
Answer: 12.3 µM

Question: And the TGI [34]?
Answer: > 100 µM

Question: And the TGI [35]?
Answer: 17.6 µM

Question: What about the TGI [36] of the same molecule?
Answer: 13.5 µM

Question: What about the TGI [37] of the same molecule?
Answer: 18 µM

Question: What about the TGI [38] of the same molecule?
Answer: 15.1 µM

Question: And the TGI [39]?
Answer: 7.52 µM

Question: And the TGI [40]?
Answer: 14.2 µM

Question: And the TGI [41]?
Answer: 15.1 µM

Question: And the TGI [42]?
Answer: 14 µM

Question: And the TGI [43]?
Answer: 17.3 µM

Question: What about the TGI [44] of the same molecule?
Answer: 14.5 µM

Question: And the TGI [45]?
Answer: 22.8 µM

Question: What about the TGI [46] of the same molecule?
Answer: 29.7 µM

Question: And the TGI [47]?
Answer: 13.7 µM

Question: And the TGI [48]?
Answer: > 100 µM

Question: And the TGI [49]?
Answer: 11.2 µM

Question: And the TGI [50]?
Answer: 3 µM

Question: What about the TGI [51] of the same molecule?
Answer: 15 µM

Question: What about the TGI [52] of the same molecule?
Answer: > 23.8 µM

Question: What about the TGI [53] of the same molecule?
Answer: 18.3 µM

Question: And the TGI [54]?
Answer: 14.3 µM

Question: Which results are given for `CCOC(=O)C[n+]1ccc2c([nH]c3cc(OC)ccc32)c1C`?
Answer: TGI [1]: > 100 µM; TGI [2]: > 100 µM; TGI [3]: > 100 µM; TGI [4]: > 100 µM; TGI [5]: > 100 µM; TGI [6]: > 100 µM; TGI [7]: > 100 µM; TGI [8]: > 100 µM; TGI [9]: > 100 µM; TGI [10]: > 100 µM; TGI [11]: > 100 µM; TGI [55]: > 100 µM; TGI [12]: > 100 µM; TGI [13]: > 100 µM; TGI [14]: > 100 µM; TGI [15]: > 100 µM; TGI [16]: > 100 µM; TGI [17]: > 100 µM; TGI [18]: > 100 µM; TGI [19]: > 100 µM; TGI [20]: > 100 µM; TGI [21]: > 100 µM; TGI [22]: > 100 µM; TGI [23]: > 100 µM; TGI [24]: > 100 µM; TGI [25]: > 100 µM; TGI [26]: > 100 µM; TGI [27]: > 100 µM; TGI [28]: > 100 µM; TGI [29]: > 100 µM; TGI [30]: > 100 µM; TGI [31]: > 100 µM; TGI [32]: > 100 µM; TGI [33]: > 100 µM; TGI [34]: > 100 µM; TGI [35]: > 100 µM; TGI [56]: > 100 µM; TGI [36]: > 100 µM; TGI [37]: > 100 µM; TGI [38]: > 100 µM; TGI [39]: > 100 µM; TGI [40]: > 100 µM; TGI [41]: > 100 µM; TGI [42]: > 100 µM; TGI [43]: > 100 µM; TGI [44]: > 100 µM; TGI [45]: > 100 µM; TGI [57]: > 100 µM; TGI [46]: > 100 µM; TGI [47]: > 100 µM; TGI [48]: > 100 µM; TGI [49]: > 100 µM; TGI [50]: > 100 µM; TGI [51]: > 100 µM; TGI [52]: > 100 µM; TGI [53]: > 100 µM; TGI [54]: > 100 µM
